Assay results from patent US20060079439A1, “Elastin prevents occlusion of body vessels by vascular smooth muscle cells” (priority 2002, published 2006).
“Also recorded” adds a separate entry of the source. Where two headings read alike, the source gives them in different places. *1 amine or outer side, *2 acyl side, *3 side chain or, on linkers, in order; H or OH if unused. Where a SMILES comes first, the peptide text is derived from it. Bridges are numbered along the chain shown (N, C = ends). Roman numbers before positions name the chains, in order. [ ]: non-standard residue; d: D form. Actinocin(9to1) = Cc1c2oc3c(C)ccc(C(=O)[*:1])c3nc-2c(C(=O)[*:2])c(N)c1=O; NMeV = CN[C@H](C(=O)O)C(C)C; Sar = CNCC(=O)O

Columns and labels:
[1] = test system: Eln −/− vascular smooth muscle cells; conditions: for effect of pretreatment on tropoelastin- or elastin peptide-induced actin stress fiber formation: 100 μM actinomycin D, 10 μg/ml cyclohexamide, 100 ng/ml pertussis toxin or β protomer, 20 μM EDTA, 10 μM genistein; for formation of organized actin stress fibers / actin myofilament polymerization: 3 hours, 1 ug/ml tropoelastin, 10 nM elastin peptide or 10 nM control peptide; for effect on induction of contractile organization in Eln −/− vsmcs by elastin: pertussis toxin 100 ng/ml, preliminary experiments
[2] = test system: vascular smooth muscle cells; type: cell-based, mouse; conditions: for effect of inhibitor on elastin peptide induced cell migration / effect of inhibitor on migration in response to PDGF: 10 μM genistein, 100 ng/ml pertussis toxin; for effect of inhibitor on elastin peptide induced cell migration: 100 ng/ml β-protomer, 20 μM Y27632; for effect of inhibitor on migration in response to PDGF: 30 ng/ml PDGF; for effect on migration of Eln −/− vsmcs towards elastin: pertussis toxin 100 ng/ml, preliminary experiments
Description: (§1) Instead, we postulated that elastin signals vsmcs to migrate and adhere to the elastic lamellae. To test this hypothesis we used a modified Boyden chamber assay (Li et al., 1998; Raines et al., 1993). This assay system consists of two adjacent chambers separated by a semipermeable membrane. The amount of cells placed in one chamber (upper) that migrate to the other chamber (lower) is measured by counting the number of cells that have passed through to the undersurface of the filter.
Briefly, chemotaxis was measured using a modified Boyden chamber method. […] Prior to their addition to the upper chamber, vascular smooth muscle cells were incubated with either 20 μM EDTA (inhibitor of integrin receptors), 10 μM genistein (inhibitor of receptor tyrosine kinases), 100 ng/ml pertussis toxin, 100 ng/ml β-protomer, 20 μM Y27632, or the cells were left untreated. […] Cells were added to the upper chamber and incubated for three hours.

[3] = test system: Eln −/− vascular smooth muscle cells; assay: Focal adhesion organization, vinculin immunofluorescence; type: cell-based, mouse; conditions: 3 hours, 1 ug/ml tropoelastin, 10 nM elastin peptide or 10 nM control peptide
[4] = test system: cAMP levels in Eln −/− vsmcs; type: cell-based, mouse; conditions: for forskolin induced cAMP levels: 10 μM forskolin pretreatment, 1 ug/ml tropoelastin, 10 μM elastin peptide or control peptide
[5] = test system: −/− vascular smooth muscle cells; assay: F:G actin ratio, sedimentation assay; type: cell-based, mouse; conditions: for increase in the F:G actin ratio: versus untreated cells
RhoA = RhoA activation, Rhotekin bead pull-down and Western blot; type: cell-based, mouse; conditions: for GTP-bound (activated) RhoA: lysates of treated −/− cells
Source text: Briefly, cell lysates from treated or untreated −/− cells were immunoprecipitated using Rhotekin-coated beads which recognize GTP-bound RhoA. […] Rho-γGTP served as a positive control and Rho-GDP served as a negative control.

[6] = test system: α smooth muscle actin and vinculin in elastin −/− vascular smooth muscle cells; assay: Western blot of protein levels; type: cell-based, mouse; conditions: three hours; 1 μg/ml tropoelastin, 10 μM elastin peptide
Description: We performed two experiments to address this model. […] Cells were washed with ice-cold DPBS and lysed in an additional 1 ml of Laemmli sample buffer. Following lysis, cells were collected, boiled, pelleted, and resolved by SDS-PAGE. The resolved samples were transferred to a membrane, blocked with 5% milk/PBST, incubated with either an anti-α smooth muscle actin antibody or an anti-vinculin antibody, and visualized using chemiluminescence.

[7] = test system: Eln +/+ vascular smooth muscle cells; assay: Actin stress fiber organization, immunofluorescence scoring; type: cell-based, mouse; conditions: elastin treatment
CHO cells = assay: Modified Boyden chamber chemotaxis assay; type: cell-based
Source text: as §1, with “In Eln −/− arteries, vascular smooth muscle cells accumulated in the subendothelial space and occluded the artery. […] Because the elastic lamellae are highly fenestrated allowing cells to migrate through, it is unlikely that elastin simply forms a physical cage that contains vsmcs. Instead,” for “Instead,”

COS cells = assay: Modified Boyden chamber chemotaxis assay; type: cell-based
Source text: as §1, with “In Eln −/− arteries, vascular smooth muscle cells accumulated in the subendothelial space and occluded the artery. […] Because the elastic lamellae are highly fenestrated allowing cells to migrate through, it is unlikely that elastin simply forms a physical cage that contains vsmcs. Instead,” for “Instead,”

[8] = test system: GiRK channel (GiRK 1 and GiRK 4) in A2058 cells; assay: GiRK channel activity in transfected A2058 cells; type: cell-based; conditions: A2058 cells transiently transfected with GiRK 1 and GiRK 4
Source text: Briefly, A2058 cells which are known to be responsive to elastin signaling were used in these studies. A2058 cells were transiently transfected with GiRK 1 and GIRK 4 inorder to form functional heteromultimeric GiRK channels. Transfected cells were contacted with either tropoelastin, a peptide containing 7 repeats of the tropoelastin fragment VGVAPG, or a control peptide.

[9] = test system: Eln +/+ vascular smooth muscle cells; conditions: recombinant tropoelastin treatment
[10] = test system: Eln +/+ and Eln −/− vsmcs; conditions: added to the media; 24, 48, and 72 hours
[11] = test system: Eln +/+ and Eln −/− vsmcs; conditions: trypan blue, end of the experiment (72 hours)
[12] = listed as recombinant tropoelastin

Cc1c2oc3c(C)ccc(C(=O)N[C@@H]4C(=O)N[C@H](C(C)C)C(=O)N5CCC[C@H]5C(=O)N(C)CC(=O)N(C)[C@@H](C(C)C)C(=O)O[C@@H]4C)c3nc-2c(C(=O)N[C@@H]2C(=O)N[C@H](C(C)C)C(=O)N3CCC[C@H]3C(=O)N(C)CC(=O)N(C)[C@@H](C(C)C)C(=O)O[C@@H]2C)c(N)c1=O [actinomycin D] (I: T[dV]P[Sar][NMeV] / II: T[dV]P[Sar][NMeV]; ester I:1-I:C, II:1-II:C; linker I:N-II:N via Actinocin(9to1))
effect of pretreatment on tropoelastin- or elastin peptide-induced actin stress fiber formation [1]: maintained

C[C@@H](N)[C@H]1CC[C@H](C(=O)Nc2ccncc2)CC1 [Y-27632]
effect of inhibitor on elastin peptide induced cell migration ([2]; 20 μM EDTA): does not block
effect of pretreatment on tropoelastin- or elastin peptide-induced actin stress fiber formation [1]: significantly decreased

VGVAPG (A bioactive fragment of tropoelastin.) [elastin peptide]
organization of focal adhesions (vinculin) [3]: induced organization of focal adhesions
vascular smooth muscle migration relative to tropoelastin and PDGF ([2]; 20 nM elastin peptide, three hours): comparable to both tropoelastin and PDGF
forskolin induced cAMP levels [4]: decrease
increase in the F:G actin ratio [5]: 3 fold
GTP-bound (activated) RhoA (RhoA): significant increase
protein levels of α smooth muscle actin or vinculin [6]: does not alter
formation of organized actin stress fibers / actin myofilament polymerization [1]: induced actin myofilament polymerization
dose dependence of the increase of actin stress fibers ([1]; three hours, 0.2 nM to 20 μM): dose dependent
treatment time of maximal effect on actin stress fiber formation ([1]; time course 15 minutes to 24 hours): about 6 hours

O=c1c(-c2ccc(O)cc2)coc2cc(O)cc(O)c12 [genistein]
effect of inhibitor on migration in response to PDGF [2]: able to block
effect of inhibitor on elastin peptide induced cell migration ([2]; 20 μM EDTA): insensitive
effect of pretreatment on tropoelastin- or elastin peptide-induced actin stress fiber formation [1]: not altered

pertussis toxin
effect of inhibitor on migration in response to PDGF [2]: no impact; also recorded: insensitive
effect of inhibitor on elastin peptide induced cell migration ([2]; 20 μM EDTA): blocked
effect on migration of Eln −/− vsmcs towards elastin [2]: sensitive
effect on the tropoelastin or elastin peptide effect on forskolin induced cAMP levels [4]: blocked
effect of pretreatment on the tropoelastin or elastin peptide effect on the F:G actin ratio ([5]; 100 ng/ml pretreatment): significantly decreased
RhoA activation by tropoelastin or elastin peptide after pretreatment (RhoA; pretreatment with pertussis toxin): unable to activate RhoA
effect of pretreatment on tropoelastin- or elastin peptide-induced actin stress fiber formation [1]: significantly decreased
effect on induction of contractile organization in Eln −/− vsmcs by elastin [1]: sensitive

C[C@@H]1C[C@@H]([C@H](O)CC2CC(=O)NC(=O)C2)C(=O)[C@@H](C)C1 [cyclohexamide]
effect of pretreatment on tropoelastin- or elastin peptide-induced actin stress fiber formation [1]: maintained

cholera toxin [reference compound]
cAMP levels [4]: increased

control peptide: control peptide (SEQ ID NO: 4) (VSLSPG; Control random fragment.) [reference compound]
forskolin induced cAMP levels [4]: not
increase in the F:G actin ratio [5]: not
formation of organized actin stress fibers / actin myofilament polymerization [1]: did not produce this effect

O=C(O)CN(CCN(CC(=O)O)CC(=O)O)CC(=O)O [EDTA, ethylenediamine tetraacetic acid]
effect of inhibitor on migration in response to collagen ([2]; 10 μg/ml collagen type I, 20 μM EDTA): able to block
effect of inhibitor on elastin peptide induced cell migration ([2]; 20 μM EDTA): insensitive
effect on migration of Eln −/− vsmcs towards elastin [2]: insensitive
effect of pretreatment on tropoelastin- or elastin peptide-induced actin stress fiber formation [1]: not altered
effect on induction of contractile organization in Eln −/− vsmcs by elastin [1]: little or no inhibition

B1: tropoelastin: protein encoded by the elastin gene; human amino acid sequence SEQ ID NO: 2; used as recombinant tropoelastin (protein, listed as Homo sapiens)
chain: MAGLTAAAPRPGVLLLLLSILHPSRPGGVPGAIPGGVPGGVFYPGAGLGALGGGALGPGGKPLKPVPGGLAGAGLGAGLGAFPAVTFPGALVPGGVADAAAAYKAAKAGAGLGGVPGVGGLGVSAGAVVPQPGAGVKPGKVPGVGLPGVYPGGVLPGARFPGVGVLPGVPTGAGVKPKAPGVGGAFAGIPGVGPFGGPQPGVPLGYPIKAPKLPGGYGLPYTTGKLPYGYGPGGVAGAAGKAGYPTGTGVGPQAAAAAAAKAAAKFGAGAAGVLPGVGGAGVPGVPGAIPGIGGIAGVGTPAAAAAAAAAAKAAKYGAAAGLVPGGPGFGPGVVGVPGAGVPGVGVPGAGIPVVPGAGIPGAAVPGVVSPEAAAKAAAKAAKYGARPGVGVGGIPTYGVGAGGFPGFGVGVGGIPGVAGVPSVGGVPGVGGVPGVGISPEAQAAAAAKAAKYGVGTPAAAAAKAAAKAAQFGLVPGVGVAPGVGVAPGVGVAPGVGLAPGVGVAPGVGVAPGVGVAPGIGPGGVAAAAKSAAKVAAKAQLRAAAGLGAGIPGLGVGVGVPGLGVGAGVPGLGVGAGVPGFGAGADEGVRRSLSPELREGDPSSSQHLPSTPSSPRVPGALAAAKAAKYGAAVPGVLGGLGALGGVGIPGGVVGAGPAAAAAAAKAAAKAAQFGLVGAAGLGGLGVGGLGVPGVGGLGGIPPAAAAKAAKYGAAGLGGVLGGAGQFPLGGVAARPGFGLSPIFPGGACLGKACGRKRK
actin stress fiber organization in Eln +/+ cells ([7]; listed as elastin): no affect
actin stress fiber organization in Eln +/+ cells [7, 12]: does not affect
organization of focal adhesions (vinculin) [3]: induced organization of focal adhesions
organization of focal adhesions (vinculin) [3, 12]: induces well-defined focal adhesions
migration of murine vsmcs to recombinant tropoelastin [2]: migrated aggressively
migration without concentration gradient (checkerboard analysis) ([2]; 200 ng to 200 ng gradient): minimal migration
amount of migration induced, relative to platelet derived growth factor ([2]; data not shown): equivalent to the standard dose of 30 ng/ml of platelet derived growth factor
migration of Eln +/+ vsmcs relative to Eln −/− vsmcs ([2]; exogenous tropoelastin): did not migrate towards exogenous tropoelastin as readily as Eln −/− vsmcs
migration of CHO cells exposed to elastin (CHO cells): No migration
migration of COS cells exposed to elastin (COS cells): No migration
cAMP levels in the presence of cholera toxin [4]: significantly reduced
forskolin induced cAMP levels [4]: decrease
increase in cAMP ([4]; elastin treatment alone): 3 fold
level of cAMP in the presence of pertussis toxin ([4]; pertussis toxin and elastin): raises the level of cAMP
GiRK channel activity [8]: activation
increase in the F:G actin ratio [5]: 3 fold
GTP-bound (activated) RhoA (RhoA): significant increase
protein levels of α smooth muscle actin or vinculin [6]: does not alter
formation of organized actin stress fibers / actin myofilament polymerization [1]: induced actin myofilament polymerization
formation of organized actin stress fibers / actin myofilament polymerization [1, 12]: induces the formation of organized actin stress fibers
vinculin organization in Eln +/+ vsmcs [9]: does not affect vinculin organization
proliferation of Eln −/− and Eln +/+ vsmcs [10]: reduced to similar levels
cell viability [11]: > 98%
